The conditions of data set [1]: in vivo.
Data set [2] can be described thus: Body weight, spleen weight and tolerability in Kunming mice with transplanted H22 tumor. To be noted: for Weight of spleen / Average weight (X ± S, g) End / Average weight (X ± S, g) Start: 2 mg/kg, ip × 5; for Weight of spleen: end of test; for Average weight (X ± S, g) End: End of test; for Average weight (X ± S, g) Start: Start of test.
Where [3] appears, read: The 3rd day after administration, 2 mg/kg ip.
[4] abbreviates: The 5th day after administration, 2 mg/kg ip.
Where [5] appears, read: The 7th day after administration, 2 mg/kg ip.
[6] abbreviates: The 9th day after administration, 2 mg/kg ip.
The mark [7] stands for this setting: The 11th day after administration, 2 mg/kg ip.

The values that follow come from patent US20120015887A1, “SYNTHETIC PEPTIDE AND USES THEREOF” (priority 2009, published 2012).

Bridge positions count the residues as written; N and C are the ends. Side chains are listed from the residue outwards. Peptide text beside a SMILES is read from it. I, II: the chains in the order shown.

With `C[C@@H](O)[C@H](N)C(=O)N[C@@H](CCCCN)C(=O)N1CCC[C@H]1C(=O)N[C@@H](CCCNC(=N)N)C(=O)NCCCC[C@H](NC(=O)[C@H](CCCNC(=N)N)NC(=O)[C@@H]1CCCN1C(=O)[C@H](CCCCN)NC(=O)[C@@H](N)[C@@H](C)O)C(=O)NCCCC[C@H](NC(=O)[C@H](CCCCNC(=O)[C@H](CCCNC(=N)N)NC(=O)[C@@H]1CCCN1C(=O)[C@H](CCCCN)NC(=O)[C@@H](N)[C@@H](C)O)NC(=O)[C@H](CCCNC(=N)N)NC(=O)[C@@H]1CCCN1C(=O)[C@H](CCCCN)NC(=O)[C@@H](N)[C@@H](C)O)C(=O)NCC(=O)O` [(TKPR)4>K2>K-G] (I: H-TKPRK([Arg-Pro-Lys-Thr])KG-OH / II: H-TKPRK([Arg-Pro-Lys-Thr]); amide I:6-II:C), the “Abnormity or side effect in test chickens” value (from here on “Abnormity or side effect”) in data set [1] was “no abnormity or side effect”. In data set [2] (2 mg/kg ip, test duration), the “Body weight growth compared with the blank control group” value is “the same as that of the blank control group”. The “Death / acute toxicity in tumor-bearing mice” value in data set [2] (2 mg/kg ip, test duration) is on record as “no acute toxicity reactions occurred”. In addition, the “Side effect in tumor-bearing mice” value in data set [2] (2 mg/kg ip, test duration) is on record as “no obvious side effect”. The compound also registered a Weight of spleen in data set [2] of 0.31 ± 0.08 g. In data set [2], the “Average weight (X ± S, g) End” value was 30.6 ± 3.2 g. For the same compound, the “Average weight (X ± S, g) Start” value in data set [2] worked out at 14.8 ± 0.8 g. Besides, the Body weight/g in data set [2] (setting [3]) was 19.6 ± 0.8 g; in data set [2] (setting [4]), 23.3 ± 1.0 g; in data set [2] (setting [5]) it was 26.2 ± 1.9 g; in data set [2] (setting [6]), 28.5 ± 2.5 g; in data set [2] (setting [7]) it was 30.6 ± 3.2 g; in data set [2] (The day without administration) it was 14.8 ± 0.8 g.

For `C[C@@H](O)[C@H](N)C(=O)N[C@@H](CCCCN)C(=O)N1CCC[C@H]1C(=O)N[C@@H](CCCNC(=N)N)C(=O)NCCCC[C@H](NC(=O)[C@H](CCCNC(=N)N)NC(=O)[C@@H]1CCCN1C(=O)[C@H](CCCCN)NC(=O)[C@@H](N)[C@@H](C)O)C(=O)NCCCC[C@H](NC(=O)[C@H](CCCCNC(=O)[C@H](CCCNC(=N)N)NC(=O)[C@@H]1CCCN1C(=O)[C@H](CCCCN)NC(=O)[C@@H](N)[C@@H](C)O)NC(=O)[C@H](CCCNC(=N)N)NC(=O)[C@@H]1CCCN1C(=O)[C@H](CCCCN)NC(=O)[C@@H](N)[C@@H](C)O)C(=O)O` [(TKPR)4>K2>K, reference compound] (I: H-TKPRK([Arg-Pro-Lys-Thr])K-OH / II: H-TKPRK([Arg-Pro-Lys-Thr]); amide I:6-II:C), in data set [1], the “Abnormity or side effect” value is given as “no abnormity or side effect”.

For the compound `C[C@@H](O)[C@H](N)C(=O)N[C@@H](CCCCN)C(=O)N1CCC[C@H]1C(=O)N[C@@H](CCCNC(=N)N)C(=O)NCCCC[C@H](NC(=O)[C@H](CCCNC(=N)N)NC(=O)[C@@H]1CCCN1C(=O)[C@H](CCCCN)NC(=O)[C@@H](N)[C@@H](C)O)C(=O)NCCCC[C@H](NC(=O)[C@H](CCCCNC(=O)[C@H](CCCNC(=N)N)NC(=O)[C@@H]1CCCN1C(=O)[C@H](CCCCN)NC(=O)[C@@H](N)[C@@H](C)O)NC(=O)[C@H](CCCNC(=N)N)NC(=O)[C@@H]1CCCN1C(=O)[C@H](CCCCN)NC(=O)[C@@H](N)[C@@H](C)O)C(=O)N[C@H](C(=O)N[C@@H](CCCCN)C(=O)N1CCC[C@H]1C(=O)N[C@@H](CCCNC(=N)N)C(=O)O)[C@@H](C)O` [(TKPR)4>K2>K-TKPR] (I: H-TKPRK([Arg-Pro-Lys-Thr])KTKPR-OH / II: H-TKPRK([Arg-Pro-Lys-Thr]); amide I:6-II:C), in data set [1], the “Abnormity or side effect” value is given as “no abnormity or side effect”.

`C[C@@H](O)[C@H](N)C(=O)N[C@@H](CCCCN)C(=O)N1CCC[C@H]1C(=O)N[C@@H](CCCNC(=N)N)C(=O)O` [TKPR, Thr-Lys-Pro-Arg, reference compound] (H-TKPR-OH): the Weight of spleen in data set [2] is listed as 0.32 ± 0.09 g. Besides, in data set [2], the “Average weight (X ± S, g) End” value is reported as 29.6 ± 1.7 g. For the same compound, the “Average weight (X ± S, g) Start” value in data set [2] was found to be 15.2 ± 0.7 g. Also, the Body weight/g in data set [2] (setting [3]) is on record as 18.9 ± 0.7 g; in data set [2] (setting [4]), 21.5 ± 1.1 g; in data set [2] (setting [5]) it was 24.4 ± 1.3 g; in data set [2] (setting [6]) it was 27.0 ± 1.5 g; in data set [2] (setting [7]), 29.6 ± 1.7 g; in data set [2] (The day without administration), 15.2 ± 0.7 g.
